These are literature values, as cited in patent publication US7625888B2, “Fused triazole derivatives as dipeptidyl peptidase-IV inhibitors for the treatment or prevention of diabetes” (Merck & Co., Inc., priority 2004, dated 2009).

For one data set, the target named is T1, DPP-IV (Homo sapiens, UniProt P27487).
T1 construct: GRF is rapidly degraded in plasma to GRF[3-44]

The test system of a further data set is hematopoiesis. Particulars: mouse, cyclophosphamide-induced neutropenia.
The next data set concerns cardiac allograft. As to conditions: rats; doubled from day 7.

T1 sequence (P27487 39-766 limits assumed, species assumed): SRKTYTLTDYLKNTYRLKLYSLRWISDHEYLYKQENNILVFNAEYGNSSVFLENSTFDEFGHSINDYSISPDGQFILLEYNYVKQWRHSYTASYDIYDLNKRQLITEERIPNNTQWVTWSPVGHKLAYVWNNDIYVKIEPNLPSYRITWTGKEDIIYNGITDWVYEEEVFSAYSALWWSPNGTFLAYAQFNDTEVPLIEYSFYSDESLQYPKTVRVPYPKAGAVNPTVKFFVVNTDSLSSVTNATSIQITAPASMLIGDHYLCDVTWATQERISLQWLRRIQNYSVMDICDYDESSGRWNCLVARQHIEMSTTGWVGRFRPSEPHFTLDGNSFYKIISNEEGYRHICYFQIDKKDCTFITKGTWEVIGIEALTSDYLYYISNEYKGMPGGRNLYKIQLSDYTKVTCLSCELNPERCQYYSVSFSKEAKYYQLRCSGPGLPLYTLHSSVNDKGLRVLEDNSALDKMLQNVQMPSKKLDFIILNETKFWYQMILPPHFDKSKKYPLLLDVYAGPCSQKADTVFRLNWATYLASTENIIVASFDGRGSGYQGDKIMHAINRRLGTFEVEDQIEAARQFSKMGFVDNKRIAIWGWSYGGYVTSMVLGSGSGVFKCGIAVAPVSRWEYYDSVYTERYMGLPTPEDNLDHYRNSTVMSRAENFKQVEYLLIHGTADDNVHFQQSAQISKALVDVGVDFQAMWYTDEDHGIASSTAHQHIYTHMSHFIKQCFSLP

diprotin A: on DPP-IV, the “degradation of GRF in plasma to GRF[3-44]” value is reported as “prevented”.

As for `CC(C)[C@H](N)C(=O)N1CCC[C@H]1B(O)O` [Val-Boro-Pro], the effect on hematopoiesis result in the data set with hematopoiesis is “stimulated hematopoiesis”.

In the case of `CC(C)N1CCC(c2ccccc2)(c2ccccc2)CC1` [Prodipine, Pro-Pro-diphenyl-phosphonate], the cardiac allograft survival in the data set with cardiac allograft is given as 14 day.
